Legend:
Experiment in all cases: relative viability (nuclei count vs DMSO), 5 days (fraction); higher = more cells survive
[1] = compound: Cc1ccc2nc(NCCN)c3ncc(C)n3c2c1 + C[C@@H](Oc1cc(-c2cnn(C3CCNCC3)c2)cnc1N)c1c(Cl)ccc(F)c1Cl [Crizotinib] (partner 1 µM)
In short: (§1)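 Relative viability equals treated-well nuclei counts divided by vehicle-well nuclei counts. Counts came from 4× images of lung cancer cell lines grown in 1536-well plates for 5 days after pin-tool dosing on the day after seeding. Dosing used one drug alone or a fixed anchor-drug dose plus five library-drug doses (not always all listed) in √10 steps, and values are medians of duplicate plates.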

Salubrinal + Dasatinib = compound: O=C(/C=C/c1ccccc1)NC(NC(=S)Nc1cccc2cccnc12)C(Cl)(Cl)Cl [Salubrinal] + Cc1nc(Nc2ncc(C(=O)Nc3c(C)cccc3Cl)s2)cc(N2CCN(CCO)CC2)n1 [Dasatinib] (partner 0.075 µM)
In short: as §1

Salubrinal + Luminespib = compound: O=C(/C=C/c1ccccc1)NC(NC(=S)Nc1cccc2cccnc12)C(Cl)(Cl)Cl [Salubrinal] + CCNC(=O)c1noc(-c2cc(C(C)C)c(O)cc2O)c1-c1ccc(CN2CCOCC2)cc1 [Luminespib] (partner 0.01 µM)
In short: as §1

Salubrinal + Navitoclax = compound: O=C(/C=C/c1ccccc1)NC(NC(=S)Nc1cccc2cccnc12)C(Cl)(Cl)Cl [Salubrinal] + CC1(C)CCC(c2ccc(Cl)cc2)=C(CN2CCN(c3ccc(C(=O)NS(=O)(=O)c4ccc(N[C@H](CCN5CCOCC5)CSc5ccccc5)c(S(=O)(=O)C(F)(F)F)c4)cc3)CC2)C1 [Navitoclax] (partner 0.5 µM)
In short: as §1

Cell Line | relative viability ([1]; first compound 0.04 µM) | relative viability ([1]; first compound 0.1265 µM) | relative viability ([1]; first compound 0.4 µM) | relative viability ([1]; first compound 1.265 µM) | relative viability ([1]; first compound 4 µM) | relative viability (Salubrinal + Dasatinib; first compound 0.08 µM) | relative viability (Salubrinal + Dasatinib; first compound 0.253 µM) | relative viability (Salubrinal + Dasatinib; first compound 0.8 µM) | relative viability (Salubrinal + Dasatinib; first compound 2.53 µM) | relative viability (Salubrinal + Dasatinib; first compound 8 µM) | relative viability (Salubrinal + Luminespib; first compound 0.08 µM) | relative viability (Salubrinal + Luminespib; first compound 0.253 µM) | relative viability (Salubrinal + Luminespib; first compound 0.8 µM) | relative viability (Salubrinal + Luminespib; first compound 2.53 µM) | relative viability (Salubrinal + Luminespib; first compound 8 µM) | relative viability (Salubrinal + Navitoclax; first compound 0.08 µM) | relative viability (Salubrinal + Navitoclax; first compound 0.253 µM) | relative viability (Salubrinal + Navitoclax; first compound 0.8 µM) | relative viability (Salubrinal + Navitoclax; first compound 2.53 µM) | relative viability (Salubrinal + Navitoclax; first compound 8 µM)
NCI-H1734 | 0.673 | 0.733 | 0.747 | 0.607 | 0.706 | 0.485 | 0.462 | 0.574 | 0.465 | 0.422 | 0.174 | 0.175 | 0.199 | 0.17 | 0.241 | 0.938 | 0.755 | 0.964 | 0.858 | 0.745
NCI-H1755 | 0.94 | 0.891 | 0.857 | 0.935 | 0.863 | 0.443 | 0.444 | 0.45 | 0.426 | 0.344 | 0.414 | 0.637 | 0.707 | 0.293 | 0.378 | 1.04 | 0.983 | 0.928 | 1.05 | 0.969
NCI-H1792 | 1.03 | 1.03 | 0.946 | 1.01 | 0.905 | 0.822 |  | 0.723 | 0.81 | 0.702 | 0.574 |  | 0.472 | 0.624 | 0.587 | 0.745 |  | 1.26 | 0.669 | 0.458
NCI-H1915 | 0.823 |  | 0.816 | 0.868 | 0.914 | 0.359 | 0.373 | 0.323 | 0.298 | 0.345 | 0.918 | 0.559 | 1.26 | 0.71 | 0.752 | 0.774 | 0.778 | 0.83 | 0.759 | 0.774
NCI-H1944 | 1.05 | 1.18 | 1.09 | 1.19 | 1.09 | 0.233 | 0.216 | 0.205 | 0.226 | 0.246 | 0.792 | 1.04 | 0.807 | 0.733 | 0.831 | 1.07 | 1.08 | 1.12 | 1.04 | 1.05
NCI-H1975 | 1.05 | 0.965 | 0.957 | 0.771 | 0.757 | 0.363 | 0.369 | 0.376 | 0.374 | 0.3 | 0.223 | 0.394 | 0.292 | 0.257 | 0.282 | 1.27 | 0.796 | 1.21 | 1.15 | 1.1
NCI-H1993 | 0.822 | 0.896 | 0.811 | 0.812 | 0.826 | 0.602 | 0.573 | 0.525 | 0.506 | 0.503 | 0.899 | 0.681 | 0.987 | 0.896 | 0.827 | 1.02 | 0.902 | 0.976 | 0.799 | 0.733
NCI-H2009 | 1.06 | 1.06 | 1.14 | 1.04 | 0.784 | 0.288 | 0.287 | 0.304 | 0.278 | 0.235 | 1.09 | 0.966 | 0.984 | 0.995 | 0.878 | 1.16 | 1.18 | 1.19 | 1.17 | 1.07
NCI-H2023 | 0.702 | 0.652 | 0.733 | 0.767 | 0.414 | 0.707 | 0.489 | 0.671 | 0.593 | 0.343 | 0.884 | 0.703 | 0.874 | 0.517 | 0.884 | 1.05 | 0.733 | 0.96 | 1.01 | 0.932
NCI-H2085 | 1.01 | 0.77 | 0.879 | 0.848 | 0.87 | 0.228 | 0.227 | 0.258 | 0.249 | 0.246 | 0.473 | 0.47 | 0.562 | 0.366 | 0.496 | 1.26 | 1 | 1.23 | 1.07 | 1.21
NCI-H2087 | 1.1 | 0.926 | 0.782 | 0.932 | 0.727 | 0.954 | 0.62 | 1.15 | 1.01 | 0.733 | 0.151 | 0.164 | 0.16 | 0.187 | 0.183 | 1.04 | 1.02 | 1.11 | 0.964 | 0.945
NCI-H2126 | 1.04 | 0.999 | 1.09 | 1 | 1.03 | 0.66 | 0.554 | 0.62 | 0.592 | 0.46 | 0.958 | 0.833 | 1.03 | 0.951 | 0.877 | 0.897 | 0.913 | 0.914 | 0.808 | 0.867
NCI-H2170 | 1.17 | 1.14 | 1.1 | 1.21 | 1.06 | 0.764 | 0.526 | 0.71 | 0.57 | 0.534 | 0.854 | 0.686 | 0.642 | 0.643 | 0.714 | 0.662 | 0.581 | 0.631 | 0.598 | 0.503
NCI-H2228 | 0.51 | 0.436 | 0.53 | 0.346 | 0.405 | 0.568 | 0.485 | 0.508 | 0.528 | 0.431 | 0.105 | 0.0961 | 0.154 | 0.108 | 0.174 | 1.43 | 0.661 | 0.888 | 1.07 | 0.767
NCI-H2347 | 0.653 | 0.673 | 0.615 | 0.617 | 0.625 | 0.295 | 0.327 | 0.317 | 0.346 | 0.318 | 0.786 | 0.63 | 0.381 | 0.512 | 0.403 | 0.928 | 0.86 | 0.75 | 0.728 | 0.864
NCI-H2405 | 0.951 | 0.827 | 0.853 | 0.838 | 0.791 | 0.252 | 0.223 | 0.224 | 0.2 | 0.204 | 0.591 | 0.865 | 0.62 | 0.612 | 0.668 | 0.942 | 0.957 | 0.793 | 0.82 | 0.905
